# Literature values in US20090123956A1, “Measurement of the oxidants-antioxidants balance in liquids” (Samsung Electronics Co., Ltd., priority 2006, published 2009).
# Conditions: change in absorbance at 450 nm (reference 620 or 570 nm) at equivalent molar concentration, uric acid = 1
compound,measurement,value
N[C@@H](CCC(=O)N[C@@H](CS)C(=O)NCC(=O)O)C(=O)O [GSH],relative activity in compare with uric acid,about 1
Cc1c(C)c2c(c(C)c1O)CCC(C)(C(=O)O)O2 (stereo not drawn) [Trolox],relative activity in compare with uric acid,about 1
O=C1O[C@H]([C@@H](O)CO)C(O)=C1O [vitamin C],relative activity in compare with uric acid,about 1
